Results reported in patent publication US20120309739A1, “AKT / PKB INHIBITORS” (ALMAC DISCOVERY LIMITED, priority 2009, published 2012).
Where a name gives a salt, the structure may show the parent alone.

Columns and labels:
Assay type in all cases: biochemical
AKT3 = target: T1, AKT3 (Homo sapiens, UniProt Q9Y243); test: AKT Kinase Assay (IMAP fluorescent polarisation) vs AKT3; details: activated AKT3, FAM Crosstide substrate
T1 construct: purchased SignalChem
Method: (§1) Testing of the compounds was performed using an AKT Kinase Assay:
(§2) Activated AKT isoforms 1, 2 and 3 were assayed utilising a 5′ FAM Crosstide (Seq. GRPRTSSFAEG-OH). The extent of kinase phosphorylation was determined by fluorescent polarisation using IMAP progressive binding reagent, which introduces binding beads which allow the reagent to specifically bind to phosphate residues via covalent co-ordination complex bonds.
(§3) iMAP binding solution stops Crosstide/kinase interaction and specifically binds phosphorylated substrates. The degree of phosphorylation is determined by fluorescent polarisation (excitation 485 nm; emission 528 nm) or the reduction in speed of rotation of the excited substrate.
(§4) The following materials were used in the assay: • a) Activated AKT isoforms (SignalChem.) dissolved in Complete Reaction buffer at a pre-determined concentration selected so that the assay was carried out in the linear range. • b) AKT substrate peptide: FAM Crosstide (R7110) Molecular Devices, diluted in complete reaction buffer. • c) iMAP Progressive Screening Express Kit (R8127) Molecular Devices • d) Complete Reaction Buffer containing 0.1% BSA, 10 mM Tris-HCl, 10 mM MgCl2, 0.05% NaN3 and 0.01% phosphate free BSA, 1 mM DTT • e) Progressive Binding Solution containing 75% Buffer A, 25% Buffer B and low volume Binding Reagent which contains the binding entity for the assay • f) ATP diluted in complete reaction buffer • g) Black polystyrene 384 well assay plates (Nunc). • h) Biotek Synergy 4 Hybrid Plate reader.
(§5) 50 μl of test compound was dissolved in DMSO (Sigma Aldrich) and serially diluted in complete reaction buffer to give a fourteen point half log dose response and plated into 384 well black plates. The compound was incubated at room temperature with activated AKT isoform ([…]) at the pre-determined concentration, for 45 minutes.
(§6) […] of ATP solution mixed with 2.5 μl of AKT substrate peptide (FAM Crosstide (R7110) Molecular Devices) were dispensed into each well and the plate centrifuged at 1000 rpm for 20 seconds to ensure homogenous mixing of reagents. The reaction mix was incubated in the dark for one hour at room temperature.
(§7) The kinase reaction was stopped by the addition of Progressive Binding Solution and the mixture allowed to equilibrate for one hour in the dark, at room temperature.
(§8) The fluorescent polarisation generated in each well was determined using a […] Synergy 4 Hybrid plate reader. In brief, each reaction solution was excited at 485 nm with the emission measured at 528 nm in both the parallel and perpendicular pathway.
(§9) The polarisation value generated in each well was calculated by Gen5 software (Biotek) and the % inhibition of kinase activity compared to vehicle control was calculated via GraphPad Prism. IC50 values for each compound were calculated by non-linear regression analysis using Prism software.
(§10) All plates were internally controlled by two methods. Firstly, by calculating the signal:noise ratio; based on kinase polarisation without inhibitor and polarisation generated by complete reaction buffer in the absence of activated kinase. Secondly by determining IC50 values generated by known inhibitors of the AKT isoforms.

AKT1 = target: T2, AKT1 (Homo sapiens, UniProt P31749); test: AKT Kinase Assay (IMAP fluorescent polarisation) vs AKT1; details: activated AKT1, FAM Crosstide substrate
T2 construct: purchased SignalChem
T2 sequence (P31749 whole entry): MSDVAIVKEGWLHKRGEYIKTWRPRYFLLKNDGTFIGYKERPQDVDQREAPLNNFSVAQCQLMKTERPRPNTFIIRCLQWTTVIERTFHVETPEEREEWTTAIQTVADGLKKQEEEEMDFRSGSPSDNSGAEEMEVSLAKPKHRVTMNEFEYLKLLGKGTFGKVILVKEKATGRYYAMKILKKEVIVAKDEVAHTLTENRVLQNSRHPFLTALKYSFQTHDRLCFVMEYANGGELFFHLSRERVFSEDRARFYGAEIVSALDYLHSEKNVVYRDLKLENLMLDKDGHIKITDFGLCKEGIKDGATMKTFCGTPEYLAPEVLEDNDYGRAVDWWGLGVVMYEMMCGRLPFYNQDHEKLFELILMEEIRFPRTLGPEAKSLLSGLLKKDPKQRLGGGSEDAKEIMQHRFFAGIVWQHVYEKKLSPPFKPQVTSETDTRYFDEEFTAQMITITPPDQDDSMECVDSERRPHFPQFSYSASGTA
Method: as §1, §2, §3, §4, §5, §6, §7, §8, §9, §10

AKT2 = target: T3, AKT2 (Homo sapiens, UniProt P31751); test: AKT Kinase Assay (IMAP fluorescent polarisation) vs AKT2; details: activated AKT2, FAM Crosstide substrate
T3 construct: purchased SignalChem
T3 sequence (P31751 whole entry): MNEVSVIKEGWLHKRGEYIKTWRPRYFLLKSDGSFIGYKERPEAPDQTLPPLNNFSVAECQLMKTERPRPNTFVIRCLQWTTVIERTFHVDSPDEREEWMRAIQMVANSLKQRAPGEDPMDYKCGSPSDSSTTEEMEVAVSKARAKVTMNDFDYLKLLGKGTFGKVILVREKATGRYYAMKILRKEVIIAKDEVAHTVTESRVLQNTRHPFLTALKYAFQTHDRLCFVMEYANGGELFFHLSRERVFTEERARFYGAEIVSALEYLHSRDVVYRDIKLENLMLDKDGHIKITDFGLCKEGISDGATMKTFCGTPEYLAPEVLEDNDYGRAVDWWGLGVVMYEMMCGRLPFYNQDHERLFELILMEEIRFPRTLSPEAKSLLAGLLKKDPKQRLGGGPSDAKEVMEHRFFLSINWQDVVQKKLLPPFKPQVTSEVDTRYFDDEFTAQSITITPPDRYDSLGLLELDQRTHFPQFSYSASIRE
Method: as §1, §2, §3, §4, §5, §6, §7, §8, §9, §10

T1 sequence (Q9Y243 whole entry): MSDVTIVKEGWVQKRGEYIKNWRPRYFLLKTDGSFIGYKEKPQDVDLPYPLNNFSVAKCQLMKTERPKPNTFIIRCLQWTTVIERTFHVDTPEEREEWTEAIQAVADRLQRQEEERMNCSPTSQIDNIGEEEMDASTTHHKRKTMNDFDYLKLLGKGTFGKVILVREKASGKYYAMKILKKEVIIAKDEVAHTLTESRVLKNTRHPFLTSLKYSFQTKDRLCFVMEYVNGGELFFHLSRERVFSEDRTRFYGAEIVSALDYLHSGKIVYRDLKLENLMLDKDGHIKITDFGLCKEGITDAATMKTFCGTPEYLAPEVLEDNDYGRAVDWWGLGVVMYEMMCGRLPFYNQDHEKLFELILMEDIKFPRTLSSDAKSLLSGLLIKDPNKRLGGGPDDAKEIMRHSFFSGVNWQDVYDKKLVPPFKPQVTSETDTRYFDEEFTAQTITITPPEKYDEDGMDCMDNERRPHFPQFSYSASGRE

Row | SMILES | IC50 (AKT3) | IC50 (AKT1) | IC50 (AKT2)
1 | NC1(c2ccc(-c3oc4cnccc4c3-c3ccccc3)cc2)CCC1 [Example 2, 1-(4-(3-Phenylfuro[2,3-c]pyridin-2-yl)phenyl)cyclobutanamine] | > 10000 nM | > 10000 nM | 1000 to 10000 nM
2 | NC1(c2ccc(-c3oc4cnccc4c3I)cc2)CCC1 [Example 3, 1-(4-(3-Iodofuro[2,3-c]pyridin-2-yl)phenyl)cyclobutanamine] | 1000 to 10000 nM | 1000 to 10000 nM | 1000 to 10000 nM
3 | Cn1ccc2oc(-c3ccc(C4(N)CCC4)cc3)c(-c3ccccc3)c2c1=O [Example 4, 2-(4-(1-Aminocyclobutyl)phenyl)-5-methyl-3-phenylfuro[3,2-c]pyridin-4(5H)-one] | > 10000 nM | 100 to 1000 nM | 1000 to 10000 nM
4 | NC(=O)c1ccc2c(-c3ccccc3)c(-c3ccc(C4(N)CCC4)cc3)oc2c1 [Example 5, 2-(4-(1-Aminocyclobutyl)phenyl)-3-phenylbenzofuran-6-carboxamide] | > 10000 nM | 1000 to 10000 nM | 1000 to 10000 nM
5 | N#Cc1ccc2oc(-c3ccc(C4(N)CCC4)cc3)c(-c3ccccc3)c2c1 [Example 6, 2-(4-(1-Aminocyclobutyl)phenyl)-3-phenylbenzofuran-5-carbonitrile] | > 10000 nM | 1000 to 10000 nM | 1000 to 10000 nM
6 | NC(=O)c1ccc2oc(-c3ccc(C4(N)CCC4)cc3)c(-c3ccccc3)c2c1 [Example 7, 2-(4-(1-Aminocyclobutyl)phenyl)-3-phenylbenzofuran-5-carboxamide] | > 10000 nM | 100 to 1000 nM | 100 to 1000 nM
7 | N#Cc1cccc2c(-c3ccccc3)c(-c3ccc(C4(N)CCC4)cc3)oc12 [Example 8, 2-(4-(1-Aminocyclobutyl)phenyl)-3-phenylbenzofuran-7-carbonitrile] | > 10000 nM | 1000 to 10000 nM | 1000 to 10000 nM
8 | NC(=O)c1cccc2c(-c3ccccc3)c(-c3ccc(C4(N)CCC4)cc3)oc12 [Example 9, 2-(4-(1-Aminocyclobutyl)phenyl)-3-phenylbenzofuran-7-carboxamide.2HCl] | > 10000 nM | 1000 to 10000 nM | 1000 to 10000 nM
9 | NC1(c2ccc(-c3oc4ncc(Br)cc4c3-c3ccccc3)cc2)CCC1 [Example 11, 1-(4-(5-Bromo-3-phenylfuro[2,3-b]pyridin-2-yl)phenyl)cyclobutanamine.HCl] | > 10000 nM | > 10000 nM | > 10000 nM
10 | COc1nc(N2CCOCC2)nc2oc(-c3ccc(C4(N)CCC4)cc3)c(-c3ccccc3)c12 [Example 13, 1-(4-(4-Methoxy-2-morpholino-5-phenylfuro[2,3-d]pyrimidin-6-yl)phenyl)cyclobutanamine] | 1000 to 10000 nM | 1000 to 10000 nM | 100 to 1000 nM
11 | COc1nc(NCCN(C)C)nc2oc(-c3ccc(C4(N)CCC4)cc3)c(-c3ccccc3)c12 [Example 14, N^1-(6-(4-(1-Aminocyclobutyl)phenyl)-4-methoxy-5-phenylfuro[2,3-d]pyrimidin-2-yl)-N^2,N^2-dimethylethane-1,2-diamine] | 1000 to 10000 nM | 100 to 1000 nM | 100 to 1000 nM
12 | NC1(c2ccc(-c3sc4nc[nH]c(=O)c4c3-c3ccccc3)cc2)CCC1 [Example 16, 6-(4-(1-Aminocyclobutyl)phenyl)-5-phenylthieno[2,3-d]pyrimidin-4(3H)-one] | 1000 to 10000 nM | 1000 to 10000 nM | 100 to 1000 nM
13 | COc1nccc2oc(-c3ccc(C4(N)CCC4)cc3)c(-c3ccccc3)c12 [Example 17, 1-(4-(4-Methoxy-3-phenylfuro[3,2-c]pyridin-2-yl)phenyl)cyclobutanamine] | > 10000 nM | 1000 to 10000 nM | 1000 to 10000 nM
14 | NC1(c2ccc(-c3oc4cc[nH]c(=O)c4c3-c3ccccc3)cc2)CCC1 [Example 18, 2-(4-(1-Aminocyclobutyl)phenyl)-3-phenylfuro[3,2-c]pyridin-4(5H)-one] | > 10000 nM | 100 to 1000 nM | 1000 to 10000 nM
15 | NC1(c2ccc(-c3oc4ncccc4c3-c3ccccc3)cc2)CCC1 [Example 19, 1-(4-(3-Phenylfuro[2,3-b]pyridin-2-yl)phenyl)cyclobutanamine] | > 10000 nM | > 10000 nM | > 10000 nM
16 | NC1(c2ccc(-c3oc4ncncc4c3-c3ccccc3)cc2)CCC1 [Example 20, 1-(4-(5-Phenylfuro[2,3-d]pyrimidin-6-yl)phenyl)cyclobutanamine] | > 10000 nM | 1000 to 10000 nM | 1000 to 10000 nM
17 | NC1(c2ccc(-c3oc4ncc([N+](=O)[O-])cc4c3-c3ccccc3)cc2)CCC1 [Example 21, 1-(4-(5-Nitro-3-phenylfuro[2,3-b]pyridin-2-yl)phenyl)cyclobutanamine] | > 10000 nM | 1000 to 10000 nM | 1000 to 10000 nM
18 | Nc1cnc2oc(-c3ccc(C4(N)CCC4)cc3)c(-c3ccccc3)c2c1 [Example 22, 2-(4-(1-Aminocyclobutyl)phenyl)-3-phenylfuro[2,3-b]pyridin-5-amine] | > 10000 nM | 1000 to 10000 nM | 1000 to 10000 nM
19 | NC1(c2ccc(-c3c(-c4ccccc4)oc4cccnc34)cc2)CCC1 [Example 23, 1-(4-(2-Phenylfuro[3,2-b]pyridin-3-yl)phenyl)cyclobutanamine] | > 10000 nM | > 10000 nM | > 10000 nM
20 | N#Cc1ccc2c(-c3ccccc3)c(-c3ccc(C4(N)CCC4)cc3)oc2c1 [Example 25, 2-(4-(1-Aminocyclobutyl)phenyl)-3-phenylbenzofuran-6-carbonitrile] | > 10000 nM | 1000 to 10000 nM | 1000 to 10000 nM
21 | COc1nc(N(C)C)nc2oc(-c3ccc(C4(N)CCC4)cc3)c(-c3ccccc3)c12 [Example 26, 6-(4-(1-Aminocyclobutyl)phenyl)-4-methoxy-N,N-dimethyl-5-phenylfuro[2,3-d]pyrimidin-2-amine] | > 10000 nM | 100 to 1000 nM | 1000 to 10000 nM
22 | COc1nc(N2CC(CN)C2)nc2oc(-c3ccc(C4(N)CCC4)cc3)c(-c3ccccc3)c12 [Example 27, 1-(4-(2-(3-(Aminomethyl)azetidin-1-yl)-4-methoxy-5-phenylfuro[2,3-d]pyrimidin-6-yl)phenyl)cyclobutanamine] | 1000 to 10000 nM | 100 to 1000 nM | 100 to 1000 nM
23 | NC1(c2ccc(-c3oc4ncc(N5CCOCC5)cc4c3-c3ccccc3)cc2)CCC1 [Example 28, 1-(4-(5-Morpholino-3-phenylfuro[2,3-b]pyridin-2-yl)phenyl)cyclobutanamine] | > 10000 nM | > 10000 nM | 1000 to 10000 nM
24 | NC1(c2ccc(-c3oc4ccccc4c(=O)c3-c3ccccc3)cc2)CCC1 [Example 29, 2-[4-(1-Amino-cyclobutyl)-phenyl]-3-phenyl-chromen-4-one hydrogen chloride*] | > 10000 nM | 1000 to 10000 nM | 1000 to 10000 nM
25 | N#Cc1cccc2c(-c3ccccc3)c(-c3ccc(C4(N)CNC4)cc3)oc12 [Example 30, 2-(4-(3-Aminoazetidin-3-yl)phenyl)-3-phenylbenzofuran-7-carbonitrile] | > 10000 nM | 100 to 1000 nM | > 10000 nM
26 | COc1nc(N)nc2oc(-c3ccc(C4(N)CCC4)cc3)c(-c3ccccc3)c12 [Example 31, 6-(4-(1-Aminocyclobutyl)phenyl)-4-methoxy-5-phenylfuro[2,3-d]pyrimidin-2-amine] | > 10000 nM | ≤ 100 nM | 100 to 1000 nM
27 | COc1nc(N2CCN(CCN(C)C)CC2)nc2oc(-c3ccc(C4(N)CCC4)cc3)c(-c3ccccc3)c12 [Example 33, 1-(4-(2-(4-(2-(Dimethylamino)ethyl)piperazin-1-yl)-4-methoxy-5-phenylfuro[2,3-d]pyrimidin-6-yl)phenyl)cyclobutanamine] | 1000 to 10000 nM | 100 to 1000 nM | 100 to 1000 nM
28 | COc1nc(NCCN2CCN(C)CC2)nc2oc(-c3ccc(C4(N)CCC4)cc3)c(-c3ccccc3)c12 [Example 34, 6-(4-(1-Aminocyclobutyl)phenyl)-4-methoxy-N-(2-(4-methylpiperazin-1-yl)ethyl)-5-phenylfuro[2,3-d]pyrimidin-2-amine] | 1000 to 10000 nM | ≤ 100 nM | 100 to 1000 nM
